Reference: US11466029B2, “Compounds useful to treat influenza virus infections” (Nanjing Zhengxiang Pharmaceuticals Co., Ltd., priority 2019, dated 2022)
Entries after “also recorded” stand apart in the source; their conditions may differ. Like-named read-outs stand apart in the source and are kept apart here.

Tests used:
[1] = target: Influenza Virus CEN PAn enzyme (UniProt P03433); format: biochemical; conditions: read-out: CEN IC50
IFV A/PR/8/34 (H1N1) = experiment: microbe, parasite or virus in culture; format: cell-based; conditions: Influenza A virus, MDCK, 120 h
IFV A/WSN/33 (H1N1) = experiment: microbe, parasite or virus in culture; format: cell-based; conditions: Influenza A virus, MDCK, 120 h
A/Weiss/43 (H1N1) = experiment: microbe, parasite or virus in culture; format: cell-based; conditions: Influenza A virus, H1N1, MDCK, 120 h
[2] = test system: A/California/07/2009 (H1N1)pdm09; experiment: microbe, parasite or virus in culture; format: cell-based; conditions: Influenza A virus, H1N1, MDCK, 120 h
A/Hongkong/8/68 (H3N2) = experiment: microbe, parasite or virus in culture; format: cell-based; conditions: Influenza A virus, H3N2, MDCK, 120 h
B/Florida/78/2015 = experiment: microbe, parasite or virus in culture; format: cell-based; conditions: Influenza B virus, MDCK, 120 h
B/Lee/40 = experiment: microbe, parasite or virus in culture; format: cell-based; conditions: Influenza B virus, MDCK, 120 h
influenza virus = format: cell-based
influenza virus PR/8/34 = test system: influenza virus PR/8/34; parameters: species or system Balb/c mice; conditions: in vivo
Pharmacokinetics in Rats = format: in vivo; parameters: AUClast: unit not given here; conditions: non-fasted male SD rats, plasma B-1
Procedure: C-1 was administered to 3 non-fasted male SD rats via oral gavage at 3 mg/kg.

[3] = male CD-1 mice, plasma B-1
Procedure: (§1) B-1 was administered to male CD-1 mice (4-6 weeks old, 20-30 grams, 3 animals each group) via intravenous (IV) bolus at 1 mg/kg and by oral gavage (PO) at 10 mg/kg. […] All animals had free access to food and water prior to dosing. Blood samples (˜0.03 mL each time point) were collected via the jugular vein into tubes containing sodium heparin as the anticoagulant at 0.033, 0.083, 0.25, 0.5, 1, 2, 4, 8 and 24 hours post dose for IV administration and 0.083, 0.25, 0.5, 1, 2, 4, 8 and 24 hours post dose for PO administration. The blood samples were then centrifuged for 5 minutes in a centrifuge refrigerated at 4° C. The resultant plasma samples were analyzed using LC/MS/MS to determine concentrations of B-1. Non-compartmental model with WinNonlin (Phoenix™, version 8.0) software was used to calculate pharmacokinetic (PK) parameters.

[4] = plasma B-1
Procedure: (§2) B-1 was administered to male cynomolgus monkeys (2-5 years old, 2-5 kg, 3 animals each group) via intravenous (IV) bolus at 0.25 mg/kg and by oral gavage (PO) at 1 mg/kg; Animals in the IV group had free access to food and water (non-fasted) and animals in the PO group were fasted overnight prior to dosing (fasted). C-1 was administered to male cynomolgus monkeys (fasted or non-fasted, 3 each group) via oral gavage at 1 mg/kg. Blood samples (˜0.5 mL each time point) were collected via the jugular vein into tubes containing potassium ethylenediaminetetraacetic acid (K2EDTA) as the anticoagulant at 0.033, 0.083, 0.25, 0.5, 1, 2, 4, 8 and 24 hours post dose for IV administration and 0.083, 0.25, 0.5, 1, 2, 4, 8 and 24 hours post dose for PO administration. The blood samples were then centrifuged for 10 minutes in a centrifuge refrigerated at 2-8° C. The resultant plasma samples were analyzed using LC/MS/MS to determine concentrations of B-1. Non-compartmental model with WinNonlin (Phoenix™, version 6.1) software was used to calculate pharmacokinetic (PK) parameters.

in vivo [5] = conditions: male, CD-1, mouse, iv, 1 mg/kg
Procedure: as §1

in vivo [6] = conditions: male, cynomolgus monkey, iv, 0.25 mg/kg
Procedure: as §2

in vitro = conditions: dog
[7] = Sprague-Dawley (SD), rat, IV 0.25 mg/kg

O=C1c2c(O)c(=O)ccn2N([C@@H]2c3ccccc3[Se]Cc3c2ccc(F)c3F)[C@@H]2COCCN12 [Compound B-1, (R)-12-((S)-7,8-Difluoro-6,11-Dihydrodibenzo[b,e]Selenepin-11-yl)-7-Hydroxy-3,4,12,12a-Tetrahydro-1H-[1,4]Oxazino[3,4-c]Pyrido[2,1-f][1,2,4]Triazine-6,8-Dione]
IC50 [1]: 15 nM
EC50 (IFV A/PR/8/34 (H1N1)): 1.1 nM
EC50 (IFV A/WSN/33 (H1N1)): 0.32 nM
EC50 (A/Weiss/43 (H1N1)): 1.2 nM
EC50 [2]: 0.37 nM
EC50 (A/Hongkong/8/68 (H3N2)): 0.68 nM
EC50 (B/Florida/78/2015): 25 nM
EC50 (B/Lee/40): 12 nM
antivirus activity (influenza virus): potent antivirus activity
antivirus efficacy in influenza virus PR/8/34 mouse model (influenza virus PR/8/34): potent antivirus efficacy; also recorded: potent antivirus activity
survival (influenza virus PR/8/34; mouse, po): survived throughout the study
body weight loss (influenza virus PR/8/34; mouse, po, 5 mg/kg): minimal
AUClast (Pharmacokinetics in Rats; IV 0.25 mg/kg): 84
AUClast (Pharmacokinetics in Rats; PO 3 mg/kg): 123
AUC(0-inf) (Pharmacokinetics in Rats; [7]): 92 ng·h/mL
half-life (Pharmacokinetics in Rats; [7]): 4 h
cytotoxicity (MDCK cells): little cytotoxicity
AUClast ([3]; IV 1 mg/kg): 601
AUClast ([3]; PO 10 mg/kg): 2129
AUClast ([4]; IV 0.25 mg/kg, non-fasted male cynomolgus monkeys): 204
AUClast ([4]; PO 1 mg/kg, fasted male cynomolgus monkeys): 231
AUC(0-inf) (in vivo [5]): 608 ng·h/mL
half-life (in vivo [5]): 4.1 h
AUC(0-inf) (in vivo [6]): 257 ng·h/mL
half-life (in vivo [6]): 11 h
CC50 (in vitro): 13000 nM
